In patent US8188101B2 (AstraZeneca AB, priority 2008, dated 2012):

system: Aβ42 release; experiment: Aβ release in cells stably expressing APPswe, Meso Scale Discovery electrochemiluminescence assay; assay type: cell-based, Human; conditions: Homo sapiens, SH-SY5Y, HEK or SH-SY5Y cells stably expressing APPswe, 4-6 hours incubation with test compound
Experimental: The level of activity of the compounds on Aβ release was tested using the following method:
Compounds were diluted in 100% DMSO and stored at […] prior to use. Human Embryonic Kidney (HEK) or Human Neuroblastoma (SH-SY5Y) cell lines stably expressing APP with the Swedish mutation (APPswe) were cultured using Dulbecco's Modified Eagles medium (DMEM) supplied with […] glucose, Na-pyruvate and GlutaMAX with 10% FBS, 100 U/ml penicillin-streptomycin (PEST) respectively, 1× non-essential amino acids (NEAA), […] Hepes, 100 μg/ml Zeocine. Cells at about 80% confluence were washed with PBS, detached from culture flasks using 1× Trypsin/EDTA diluted in PBS, re-suspended in cell media and plated in 384-well poly-d-lysine coated cell culture plates at about 10000-15000 cells/well, in 25 μL cell media. Optionally, cryo-preserved cells (frozen and stored at −140° C. in 90% cell media and 10% DMSO) were thawed, washed and plated as above. Next the cells were incubated for 15-24 h at 37° C. and 5% CO2, after which cell medium was changed. Fresh medium containing test compound diluted ×200 from prepared compound plate was added to the cells before further incubation for 4-6 hours at 37° C. and 5% CO2. After incubation with test compound the amount of Aβ peptides, including Aβ42, Aβ40, Aβ39, Aβ38 and Aβ37, secreted to the cell medium was analyzed using the electrochemiluminescence assay technology from Meso Scale Discovery Technology, in combination with specific antibodies raised against the different Aβ peptides. Potential cytotoxic effects of the compounds were usually assayed by measuring the ATP content (ViaLight) from cell lysate.

Structure (SMILES)	IC50 [nM]
CC(=O)N1CCc2nc(Nc3ccc(-c4cnco4)cc3)nc(N(CCO)c3ccccc3)c2C1 [Example 28, 1-(4-((2-Hydroxyethyl)(phenyl)amino)-2-(4-(oxazol-5-yl)phenylamino)-7,8-dihydropyrido[4,3-d]pyrimidin-6(5H)-yl)ethanone]	794
CC(=O)N1CCc2nc(Nc3ccc(-c4cnco4)cc3)nc(Nc3cccc(CO)c3)c2C1 [Example 29, 1-(4-(3-(Hydroxymethyl)phenylamino)-2-(4-(oxazol-5-yl)phenylamino)-7,8-dihydropyrido[4,3-d]pyrimidin-6(5H)-yl)ethanone]	631
CC(=O)N1CCc2nc(Nc3ccc(-c4cnco4)cc3)nc(N3c4ccccc4C[C@H]3CO)c2C1 [Example 30]	1000
CC(=O)N1CCc2nc(Nc3ccc(-c4cnco4)cc3)nc(N(CCC#N)C3CC3)c2C1 [Example 31, 3-((6-Acetyl-2-(4-(oxazol-5-yl)phenylamino)-5,6,7,8-tetrahydropyrido[4,3-d]pyrimidin-4-yl)(cyclopropyl)amino)propanenitrile]	794
CC(=O)N1CCc2nc(Nc3ccc(-c4cnco4)cc3)nc(N(CCO)Cc3ccccc3)c2C1 [Example 32, 1-(4-(Benzyl(2-hydroxyethyl)amino)-2-(4-(oxazol-5-yl)phenylamino)-7,8-dihydropyrido[4,3-d]pyrimidin-6(5H)-yl)ethanone]	794
CC(=O)c1cccc(Nc2nc(Nc3ccc(-c4cnco4)cc3)nc3c2CN(C(C)=O)CC3)c1 [Example 33, 1-(3-(6-Acetyl-2-(4-(oxazol-5-yl)phenylamino)-5,6,7,8-tetrahydropyrido[4,3-d]pyrimidin-4-ylamino)phenyl)ethanone]	1260
CC(=O)N1CCc2nc(Nc3ccc(-c4cnco4)cc3)nc(N(C)CC(O)c3ccccc3)c2C1 (stereo not shown) [Example 34, 1-(4-((2-Hydroxy-2-phenylethyl)(methyl)amino)-2-(4-(oxazol-5-yl)phenylamino)-7,8-dihydropyrido[4,3-d]pyrimidin-6(5H)-yl)ethanone]	3160
CC(=O)N1CCc2nc(Nc3ccc(-c4cnco4)cc3)nc(NC3(CO)CCCC3)c2C1 [Example 35, 1-(4-(1-(Hydroxymethyl)cyclopentylamino)-2-(4-(oxazol-5-yl)phenylamino)-7,8-dihydropyrido[4,3-d]pyrimidin-6(5H)-yl)ethanone]	3160
CC(=O)N1CCc2nc(Nc3ccc(-c4cnco4)cc3)nc(N(C)Cc3cccnc3)c2C1 [Example 36, 1-(4-(Methyl(pyridin-3-ylmethyl)amino)-2-(4-(oxazol-5-yl)phenylamino)-7,8-dihydropyrido[4,3-d]pyrimidin-6(5H)-yl)ethanone]	5010
CC(=O)N1CCc2nc(Nc3ccc(-c4cnco4)cc3)nc(N3c4ccccc4C[C@@H]3CO)c2C1 [Example 37]	10000
CN1CCc2nc(Nc3ccc(-c4cnn(C)c4)cc3)nc(N(CCO)c3ccccc3)c2C1 [Example 38, 2-((6-Methyl-2-(4-(1-methyl-1H-pyrazol-4-yl)phenylamino)-5,6,7,8-tetrahydropyrido[4,3-d]pyrimidin-4-yl)(phenyl)amino)ethanol]	398
CCCN1CCc2nc(Nc3ccc(-c4cnn(C)c4)cc3)nc(N(CCO)c3ccccc3)c2C1 [Example 39, 2-((2-(4-(1-Methyl-1H-pyrazol-4-yl)phenylamino)-6-propyl-5,6,7,8-tetrahydropyrido[4,3-d]pyrimidin-4-yl)(phenyl)amino)ethanol]	158
Cc1nccn1-c1ccc(Nc2nc3c(c(Cc4ccccc4)n2)CN(CCO)CC3)cc1 [Example 41, 2-(4-Benzyl-2-(4-(2-methyl-1H-imidazol-1-yl)phenylamino)-7,8-dihydropyrido[4,3-d]pyrimidin-6(5H)-yl)ethanol]	200
Cc1nccn1-c1ccc(Nc2nc3c(c(Cc4ccccc4)n2)CN(C)CC3)cc1 [Example 42, 4-Benzyl-6-methyl-N-(4-(2-methyl-1H-imidazol-1-yl)phenyl)-5,6,7,8-tetrahydropyrido[4,3-d]pyrimidin-2-amine]	398

More lines, now with the values ahead:

IC50 [nM]	Structure (SMILES)
63.1	COc1cc(Nc2nc3c(c(Cc4ccccc4)n2)COCC3)ccc1-n1cnc(C)c1 [Example 43, 4-Benzyl-N-(3-methoxy-4-(4-methyl-1H-imidazol-1-yl)phenyl)-7,8-dihydro-5H-pyrano[4,3-d]pyrimidin-2-amine]
79.4	COc1cc(Nc2nc3c(c(Cc4ccc(F)cc4)n2)C[S+]([O-])CC3)ccc1-n1cnc(C)c1 (stereo not shown) [Example 44, 4-(4-Fluorobenzyl)-N-[3-methoxy-4-(4-methyl-1H-imidazol-1-yl)phenyl]-7,8-dihydro-5H-thiopyrano[4,3-d]pyrimidin-2-amine 6-oxide]
631	Cc1nccn1-c1ccc(Nc2nc3c(c(Cc4ccccc4)n2)COCC3)cc1 [Example 45, 4-Benzyl-N-(4-(2-methyl-1H-imidazol-1-yl)phenyl)-7,8-dihydro-5H-pyrano[4,3-d]pyrimidin-2-amine]
1580	Cc1nccn1-c1ccc(Nc2nc3c(c(CC4CCOCC4)n2)CSCC3)cc1 [Example 46, N-(4-(2-Methyl-1H-imidazol-1-yl)phenyl)-4-((tetrahydro-2H-pyran-4-yl)methyl)-7,8-dihydro-5H-thiopyrano[4,3-d]pyrimidin-2-amine]
79.4	Cc1nccn1-c1ccc(Nc2nc(CCC3CCCCC3)c3c(n2)CCN(CCO)C3)cc1 [Example 47, 2-(4-(2-Cyclohexylethyl)-2-(4-(2-methyl-1H-imidazol-1-yl)phenylamino)-7,8-dihydropyrido[4,3-d]pyrimidin-6(5H)-yl)ethanol]
200	Cc1ccc(Cc2nc(Nc3ccc(-n4ccnc4C)cc3)nc3c2CN(CCO)CC3)cc1 [Example 48, 2-(2-(4-(2-Methyl-1H-imidazol-1-yl)phenylamino)-4-(4-methylbenzyl)-7,8-dihydropyrido[4,3-d]pyrimidin-6(5H)-yl)ethanol]
251	Cc1nccn1-c1ccc(Nc2nc(CCc3cccc(F)c3)c3c(n2)CCN(CCO)C3)cc1 [Example 49, 2-(4-(3-Fluorophenethyl)-2-(4-(2-methyl-1H-imidazol-1-yl)phenylamino)-7,8-dihydropyrido[4,3-d]pyrimidin-6(5H)-yl)ethanol]
251	Cc1ccc(Cc2nc(Nc3ccc(-n4ccnc4C)cc3)nc3c2CN(C)CC3)cc1 [Example 50, 6-Methyl-N-(4-(2-methyl-1H-imidazol-1-yl)phenyl)-4-(4-methylbenzyl)-5,6,7,8-tetrahydropyrido[4,3-d]pyrimidin-2-amine]
251	Cc1nccn1-c1ccc(Nc2nc(CCc3cccc(F)c3)c3c(n2)CCN(C)C3)cc1 [Example 51, 4-(3-Fluorophenethyl)-6-methyl-N-(4-(2-methyl-1H-imidazol-1-yl)phenyl)-5,6,7,8-tetrahydropyrido[4,3-d]pyrimidin-2-amine]
316	Cc1nccn1-c1ccc(Nc2nc3c(c(Cc4ccccc4F)n2)CN(C)CC3)cc1 [Example 52, 4-(2-Fluorobenzyl)-6-methyl-N-(4-(2-methyl-1H-imidazol-1-yl)phenyl)-5,6,7,8-tetrahydropyrido[4,3-d]pyrimidin-2-amine]
316	COc1cccc(Cc2nc(Nc3ccc(-n4ccnc4C)cc3)nc3c2CN(C)CC3)c1 [Example 53, 4-(3-Methoxybenzyl)-6-methyl-N-(4-(2-methyl-1H-imidazol-1-yl)phenyl)-5,6,7,8-tetrahydropyrido[4,3-d]pyrimidin-2-amine]
316	Cc1nccn1-c1ccc(Nc2nc(CCC3CCCCC3)c3c(n2)CCN(C)C3)cc1 [Example 54, 4-(2-Cyclohexylethyl)-6-methyl-N-(4-(2-methyl-1H-imidazol-1-yl)phenyl)-5,6,7,8-tetrahydropyrido[4,3-d]pyrimidin-2-amine]
316	Cc1nccn1-c1ccc(Nc2nc3c(c(CC4CCCC4)n2)CN(C)CC3)cc1 [Example 55, 4-(Cyclopentylmethyl)-6-methyl-N-(4-(2-methyl-1H-imidazol-1-yl)phenyl)-5,6,7,8-tetrahydropyrido[4,3-d]pyrimidin-2-amine]
398	Cc1nccn1-c1ccc(Nc2nc3c(c(Cc4ccccc4F)n2)CN(CCO)CC3)cc1 [Example 56, 2-(4-(2-Fluorobenzyl)-2-(4-(2-methyl-1H-imidazol-1-yl)phenylamino)-7,8-dihydropyrido[4,3-d]pyrimidin-6(5H)-yl)ethanol]
398	COc1cccc(Cc2nc(Nc3ccc(-n4ccnc4C)cc3)nc3c2CN(CCO)CC3)c1 [Example 57, 2-(4-(3-Methoxybenzyl)-2-(4-(2-methyl-1H-imidazol-1-yl)phenylamino)-7,8-dihydropyrido[4,3-d]pyrimidin-6(5H)-yl)ethanol]
200	CC(=O)N1CCc2nc(Nc3ccc(-n4ccnc4C)cc3)nc(CCC3CCCCC3)c2C1 [Example 58, 1-(4-(2-Cyclohexylethyl)-2-(4-(2-methyl-1H-imidazol-1-yl)phenylamino)-7,8-dihydropyrido[4,3-d]pyrimidin-6(5H)-yl)ethanone]
398	CC(=O)N1CCc2nc(Nc3ccc(-n4ccnc4C)cc3)nc(Cc3ccc(C)cc3)c2C1 [Example 59, 1-(2-(4-(2-Methyl-1H-imidazol-1-yl)phenylamino)-4-(4-methylbenzyl)-7,8-dihydropyrido[4,3-d]pyrimidin-6(5H)-yl)ethanone]
